Measured values as given in patent US20020082452A1, “alpha-sulfin-and alpha-sulfonamino acid amides” (priority 1998, published 2002).

Columns and labels:
Format in all cases: in vivo
Plasmopara viticola = assay: D-1: Action against Plasmopara viticola on vines (residual-protective and residual-curative action); settings: vine seedlings, spray mixture 0.02% active ingredient, evaluated after 6 days at 95-100% relative humidity and 20° C.
Method: D-1: Action against Plasmopara viticola on Vines a) Residual-Protective Action
Vine seedlings are sprayed at the 4- to 5-leaf stage with a spray mixture (0.02% active ingredient) prepared from a wettable powder formulation of the test compound. After 24 hours, the treated plants are infected with a sporangia suspension of the fungus. Fungus infestation is evaluated after incubation for 6 days at 95-100% relative humidity and 20° C. […]
b) Residual-Curative Action
Vine seedlings are infected at the 4- to 5-leaf stage with a sporangia suspension of the fungus. After incubation for 24 hours in a humidity chamber at 95-100% relative humidity and 20° C., the infected plants are dried and sprayed with a spray mixture (0.02% active ingredient) prepared from a wettable powder formulation of the test compound. After the spray coating has dried, the treated plants are placed in the humidity chamber again. Fungus infestation is evaluated 6 days after infection. […] Compounds A1.02, A1.03, A1.04, A1.03, A1.5, A1.06, A1.07, A1.09, A1.10, A1.13, A1.14, A1.15, A1.16, A1.21, A1.23.

Phytophthora [1] = assay: D-2: Action against Phytophthora on tomato plants (residual-protective and systemic action); settings: spray mixture 0.02% active ingredient (sprayed or watered), evaluated after 4-5 days at 90-100% relative humidity and 20° C.
Method: D-2: Action Against Phytophthora on Tomato Plants
(§1) a) Residual-Protective Action
(§2) After a cultivation period of 3 weeks, tomato plants are sprayed with a spray mixture (0.02% active ingredient) prepared from a wettable powder formulation of the test compound. After 48 hours, the treated plants are infected with a sporangia suspension of the fungus. Fungus infestation is evaluated after incubation of the infected plants for 5 days at 90-100% relative humidity and 20° C.
as §2, with “watered” for “sprayed”, “ingredient based on the volume of the soil)” for “ingredient)”, “compound. […]” for “compound.”, “96” for “48”, “4” for “5”, “C. […] Compounds A1.02, A1.03, A1.04, A1.03, A1.05, A1.06, A1.07, A1.09, A1.10, A1.13, A1.14, A1.15, A1.16, A1.21, A1.23.” for “C.”

Phytophthora [2] = assay: D-3: Action against Phytophthora on potato plants (residual-protective and systemic action); settings: potato plants (Bintje variety), spray mixture 0.02% active ingredient (sprayed or watered), evaluated after 4 days at 90-100% relative humidity and 20° C.
Method: D-3 Action Against Phytophthora on Potato Plants
as §1
(§3) 2-3 week old potato plants (Bintje variety) are sprayed with a spray mixture (0.02% active ingredient) prepared from a wettable powder formulation of the test compound. After 48 hours, the treated plants are infected with a sporangia suspension of the fungus. Fungus infestation is evaluated after incubation of the infected plants for 4 days at 90-100% relative humidity and 20° C.
as §3, with “watered” for “sprayed”, “ingredient based on the volume of the soil)” for “ingredient)”, “compound. […]” for “compound.”, “C. Fungal infestation is effectively controlled with compounds of Tables 1 to 37. Compounds A1.02, A1.03, A1.04, A1.03, A1.05, A1.06, A1.07, A1.09, A1.10, A1.13, A1.14, A1.15, A1.16, A1.21, A1.23.” for “C.”

Measured: Fungus infestation

CC[C@H](NS(=O)(=O)CC)C(=O)NCCc1ccc(OCCOc2ccc(F)cc2)c(OC)c1 [Compound A1.05]
completely inhibit fungal infestation: all assays above

CC[C@H](NS(=O)(=O)CC)C(=O)NCCc1ccc(OCCOc2ccccc2)c(OC)c1 [Compound A1.10]
completely inhibit fungal infestation: all assays above

CCS(=O)(=O)N[C@H](C(=O)NCCc1ccc(OCCOc2ccccc2)c(OC)c1)C(C)C [Compound A1.06]
completely inhibit fungal infestation: all assays above

COc1cc(CCNC(=O)C(NS(C)(=O)=O)C(C)C)ccc1OC(C)COc1ccc(Cl)cc1 (mixture of isomers) [Compound A1.80]
completely inhibit fungal infestation: all assays above

COc1cc(CCNC(=O)[C@@H](NS(C)(=O)=O)C(C)C)ccc1OCCOc1cccc(F)c1 [Compound A1.76]
completely inhibit fungal infestation: all assays above

COc1cc(CCNC(=O)[C@@H](NS(C)(=O)=O)C(C)C)ccc1OCCOc1ccccc1 [Compound A1.07]
completely inhibit fungal infestation: all assays above

CCS(=O)(=O)N[C@H](C(=O)NCCc1ccc(OCCOc2cccc(C)c2)c(OC)c1)C(C)C [Compound A1.25]
completely inhibit fungal infestation: all assays above

COc1cc(CCNC(=O)[C@@H](NS(C)(=O)=O)C(C)C)ccc1OC/C=C/c1ccccc1F [Compound A2.10]
completely inhibit fungal infestation: all assays above

CCS(=O)(=O)N[C@H](C(=O)NCCc1ccc(OC/C=C\c2ccccc2)c(OC)c1)C(C)C [Compound A3.02]
completely inhibit fungal infestation: all assays above

COc1cc(CCNC(=O)[C@@H](NS(C)(=O)=O)C(C)C)ccc1OCCOc1ccc(F)cc1 [Compound A1.02]
completely inhibit fungal infestation: all assays above

COc1cc(CCNC(=O)[C@@H](NS(C)(=O)=O)C(C)C)ccc1OC/C=C/c1ccc(Cl)cc1 [Compound A2.04]
completely inhibit fungal infestation: all assays above

CCS(=O)(=O)N[C@H](C(=O)NCCc1ccc(OCCOc2ccccc2Cl)c(OC)c1)C(C)C [Compound A1.21]
completely inhibit fungal infestation: all assays above

CC[C@H](NS(=O)(=O)CC)C(=O)NCCc1ccc(OCCOc2ccc(Cl)cc2)c(OC)c1 [Compound A1.15]
completely inhibit fungal infestation: all assays above

CCC[C@H](NS(=O)(=O)CC)C(=O)NCCc1ccc(OCCOc2ccc(F)cc2)c(OC)c1 [Compound A1.04]
completely inhibit fungal infestation: all assays above

COc1cc(CCNC(=O)[C@@H](NS(C)(=O)=O)C(C)C)ccc1OCCOc1ccc(Cl)c(Cl)c1 [Compound A1.75]
completely inhibit fungal infestation: all assays above

COc1cc(CCNC(=O)[C@@H](NS(C)(=O)=O)C(C)C)ccc1OCCOc1ccc(Cl)cc1 [Compound A1.14]
completely inhibit fungal infestation: all assays above

CCS(=O)(=O)N[C@H](C(=O)NCCc1ccc(OCCOc2ccc(Cl)cc2)c(OC)c1)C(C)C [Compound A1.13]
completely inhibit fungal infestation: all assays above

COc1cc(CCNC(=O)[C@@H](NS(=O)(=O)N(C)C)C(C)C)ccc1OCCOc1ccc(F)cc1 [Compound A1.03]
completely inhibit fungal infestation: all assays above

COc1cc(CCNC(=O)[C@@H](NS(C)(=O)=O)C(C)C)ccc1OCCSc1ccc(Cl)cc1 [Compound A1.78]
completely inhibit fungal infestation: all assays above

CCS(=O)(=O)N[C@H](C(=O)NCCc1ccc(OCC=Cc2ccc(Cl)cc2)c(OC)c1)C1CCC1 [Compound A1.107]
completely inhibit fungal infestation: all assays above

CCS(=O)(=O)N[C@H](C(=O)NCCc1ccc(OC/C=C/c2ccccc2F)c(OC)c1)C(C)C [Compound A2.09]
completely inhibit fungal infestation: all assays above

CCC[C@H](NS(=O)(=O)CC)C(=O)NCCc1ccc(OCCOc2ccc(Cl)cc2)c(OC)c1 [Compound A1.16]
completely inhibit fungal infestation: all assays above

CCS(=O)(=O)N[C@H](C(=O)NCCc1ccc(OC/C=C/c2ccc(Cl)cc2)c(OC)c1)C(C)C [Compound A2.03]
completely inhibit fungal infestation: all assays above

CCC[C@H](NS(=O)(=O)CC)C(=O)NCCc1ccc(OCCOc2ccccc2)c(OC)c1 [Compound A1.09]
completely inhibit fungal infestation: all assays above

C#CCC(NS(=O)(=O)CC)C(=O)NCCc1ccc(OCC=Cc2ccc(Cl)cc2)c(OC)c1 (racemic) [Compound A1.108]
completely inhibit fungal infestation: all assays above

COc1cc(CCNC(=O)[C@@H](NS(C)(=O)=O)C(C)C)ccc1OC/C=C/c1ccc(Br)cc1 [Compound A2.16]
completely inhibit fungal infestation: all assays above
